In PubChem BioAssay (NCI):
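Test compounds were applied to cells in 96-well plates for 48 hours at 5 doses. GI50: concentration for 50% inhibition of growth. The concentration for full growth arrest is given as TGI.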

Experiments:
Test in all cases: NCI anticancer screen, dose series, 48 h
HCC-2998 colon = test system: HCC-2998 colon
SF-268 CNS = test system: SF-268 CNS
CAKI-1 renal = test system: CAKI-1 renal
COLO 205 colon = test system: COLO 205 colon
MOLT-4 leukemia = test system: MOLT-4 leukemia
OVCAR-3 ovarian = test system: OVCAR-3 ovarian
HOP-92 NSCLC = test system: HOP-92 NSCLC
HCT-116 colon = test system: HCT-116 colon
HOP-18 NSCLC = test system: HOP-18 NSCLC
UO-31 renal = test system: UO-31 renal

## CC1(C)COC(c2ccc(C(F)(F)F)cc2C(O)c2ccc3ccccc3c2)=N1 (stereo not drawn)
HCC-2998 colon
  GI50: > 100 µM
  TGI: > 100 µM
SF-268 CNS
  GI50: > 10 µM
  TGI: > 100 µM
CAKI-1 renal
  GI50: > 10 µM
  TGI: > 100 µM
COLO 205 colon
  GI50: > 100 µM
  TGI: > 100 µM
MOLT-4 leukemia
  GI50: > 100 µM
  TGI: > 100 µM
OVCAR-3 ovarian
  GI50: > 100 µM
  TGI: > 100 µM
HOP-92 NSCLC
  TGI: > 100 µM
HCT-116 colon
  TGI: > 10 µM
HOP-18 NSCLC
  GI50: > 100 µM
  TGI: > 100 µM
UO-31 renal
  GI50: > 100 µM
  TGI: > 100 µM

## CC(C)=CCCc1c(C)ccc2c1C(=O)C(=O)C(C(C)C)=C2
HCC-2998 colon
  TGI: > 22 µM
SF-268 CNS
  TGI: 11.8 µM
CAKI-1 renal
  TGI: 7.79 µM
COLO 205 colon
  TGI: > 22 µM
MOLT-4 leukemia
  TGI: 20 µM
OVCAR-3 ovarian
  TGI: 7.36 µM
HOP-92 NSCLC
  TGI: 6.43 µM
HCT-116 colon
  TGI: 6.55 µM
HOP-18 NSCLC
  TGI: 8.12 µM
UO-31 renal
  TGI: > 22 µM

## COc1ccc2nc3cc(Cl)ccc3c(Sc3ccccc3[N+](=O)[O-])c2c1
HCC-2998 colon
  TGI: > 100 µM
SF-268 CNS
  TGI: > 100 µM
CAKI-1 renal
  TGI: > 100 µM
COLO 205 colon
  TGI: 37.7 µM
MOLT-4 leukemia
  TGI: > 100 µM
OVCAR-3 ovarian
  TGI: > 100 µM
HOP-92 NSCLC
  TGI: > 100 µM
HCT-116 colon
  TGI: > 100 µM
HOP-18 NSCLC
  TGI: > 100 µM
UO-31 renal
  TGI: > 100 µM

## COc1cccc(NC(=O)CC(=O)n2nc(C)c(N=Nc3ccccc3)c2C)c1
HCC-2998 colon
  TGI: > 100 µM
SF-268 CNS
  TGI: > 100 µM
CAKI-1 renal
  TGI: > 100 µM
COLO 205 colon
  TGI: > 100 µM
MOLT-4 leukemia
  TGI: > 100 µM
OVCAR-3 ovarian
  TGI: > 100 µM
HOP-92 NSCLC
  TGI: > 100 µM
HCT-116 colon
  TGI: > 100 µM
HOP-18 NSCLC
  TGI: 71.4 µM
UO-31 renal
  TGI: > 100 µM
